Measured values from patent US11505592B2, “Diagnosis and therapy of multiple sclerosis” (PRINDEX S.R.L., priority 2015, dated 2022).

Assays:
MS IgG = assay: Indirect ELISA of MS IgG binding to receptor peptides; design: species or system human; details: 100 μM peptide; 200 μg immunoglobulins
Protocol: FIG. 6: Dose-response curves of the interaction between MS sera and DDSK peptide. (A) Sera of Multiple Sclerosis patients and Control (control group is defined in material and method below) (200 μg) were incubated with different concentrations (50-100-250 μM) of peptide DDSK. For the detection, inventors used a secondary antibody anti human IgG conjugated with HRP and (3,3′,5,5′-Tetramethylbenzidine) TMB solution that was added for each well and incubated for 15-30 min. Equal volume of stopping solution (2 M H2SO4) was added to the plate and absorbance (optical density) of plate was read at 450 nm. The statistical analysis derived from 9 experiments. Values are mean±SEM. *P<0.05 MS vs CTRL (B) Linear representation of dose-response curve Values are mean±SEM. *P<0.05 MS vs CTRL.
FIGS. 7A, 7B, 7C and 7D: MS sera recognize specially receptor's peptides. […] Equal volume of stopping solution (2 M H2SO4) was added to the plate and absorbance (optical density) of plate was read at 450 nm. […]
A. Sera of Multiple Sclerosis patients and Control (200 μg) were incubated in absence (uncoated) or presence of 100 μM of DDSK peptide. […] Equal volume of stopping solution (2 M H2SO4) was added to the plate and absorbance (optical density) of plate was read at 450 nm. […]
Diluted peptide (20 μg/ml) was coated to the wells of a PVC microtiter plate and incubated at 4° C. overnight. […] For the detection, we used a secondary antibody anti human (recognized constant region of the patient antibody conjugated with HRP and (3,3′,5,5′-Tetramethylbenzidine) TMB solution that was added for each well and incubated for 15-30 min. Equal volume of stopping solution (2 M H2SO4) was added to the plate and absorbance (optical density) of plate was read at 450 nm.
To evaluate the peptide concentration to use for ELISA assay we performed a dose-response curve. […] (named DDSK in the figures) and the absorbance (optical density) of plate was read at 450 nm. […]

MO3-13 cells = assay: Determination of reactive oxygen species (DCF fluorescence) in MO3-13 cells; assay type: cell-based, human; details: 50 μM peptide 30 min, then 200 μg/ml IgG MS 30 min
Protocol: FIG. 10A: DDSK peptide reverts the effects of Ig from MS patients on ROS levels in MO3-13 cells. MO3-13 cells were grown to semi-confluence in 24 multiwell plates and incubated for 18 h in medium containing 0.2% FBS. The cells were washed twice with FBS free medium, incubated with 50 μM of DDSK for 30 min and then with 200 μg/ml of IgG from Control (IgGCtr) or MS (IgGMS) patients for 30 min. Then, the cells were incubated with 10 μM DCHF-DA for 10 min, washed three times and DCF fluorescence was measured using a plate reader fluorometer. The histograms show the mean+/−SEM values obtained in 5 different experiments from 7 control and 7 MS subjects. # p<0.05 vs IgGCtr; *p<0.05 vs IgGMS.
MO3-13 cells were grown to semi-confluence in 24 multiwell plates and incubated for 18 h in medium containing 0.2% FBS. The cells were washed twice with FBS free medium, incubated with 50 μM of Scrambled peptide (Sc) for 30 min and then with 200 μg/ml of IgG from Control (IgGCtr) or MS (IgGMS) patients for 30 min. Then, the cells were incubated with 10 μM DCHF-DA for 10 min, washed three times and DCF fluorescence was measured using a plate reader fluorometer. The histograms show the mean+/−SEM values obtained from 3 control and 3 MS subjects. *p<0.05 vs IgGCtr.
ROS levels were determined using the membrane-permeant fluorogenic probe 5,6-carboxy-2′,7′-dichlorofluoresceindiacetate, DCHFDA (Molecular Probes, Leiden, the Netherlands). The assay was based on the fluorescence detection of dichlorofluorescein (DCF), formed by ROS-mediated oxidation of the non-fluorescent precursor, dichlorofluorescin.
MO3-13 cells were grown to semi-confluence in 24 multiwell plates (45000 cell/well) and incubated for 18 h in medium containing 0.2% FBS before the experiments. […] DCF fluorescence was measured using the plate reader Fluoroskan Ascent FL fluorometer (Thermo Electron Oy, Vantaa, Finland) and data analyzed by Ascent software.

MS sera = assay: PEPSCAN-based ELISA, binding of MS sera to library peptides; design: species or system human; details: ELISA binding value, MS sera n = 9
Outline: (§1)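 Linear and CLIPS-constrained peptides on PEPSCAN cards probed with human sera (1:2500 or 1:1000) in horse serum/ovalbumin blocking buffer, then peroxidase-conjugated secondary (1/1000, 1 h, 25° C) and ABTS/H2O2 for 1 h. CCD images taken before and after coloring were subtracted to give each peptide's binding value.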

CTRL sera = assay: PEPSCAN-based ELISA, binding of control (CTRL) sera to library peptides; design: species or system human; details: ELISA binding value, CTRLs n = 10
Outline: as §1

Sequence | MEAN MS (MS sera; NOX2 library) | MEAN CTRL (CTRL sera; NOX2 library) | other results
LYGYRWPLPSKL |  |  | binding of MS IgG to peptide respect to scrambled (MS IgG): bind specifically
TWYAHNCRLQ [Scrambled peptides, scrambled peptide used as negative control, reference compound] |  |  | effect of peptide preincubation on ROS levels of IgG MS treated cells (MO3-13 cells): did not influence
CSYLNFARKRIKNPEGCGDRQNESYLNFARKRC [SEQ ID NO: 125] | 786.389 | 430.35 | 
CGDRQNESYLNFARKRCGDRQNESYLNFARKRC [SEQ ID NO: 85] | 775.500 | 404.05 | 
CLYGYRWPLPSKLSCSDAFNWTVDSENRC [Peptide 36] |  |  | MEAN MS (MS sera; 5HT2A receptor library): 511.11; MEAN CTRL (CTRL sera; 5HT2A receptor library): 298.55
CEWSVNARVNNSDPYSCQNESYLNFARKRIKNC [SEQ ID NO: 103] | 714.944 | 372.8 | 
CQTAESLAVHNITVSECVSEQKISEWGKIKESC [SEQ ID NO: 139] | 590.111 | 339.65 | 
CQNESYLNFARKRIKNCNFARKRIKNPEGGLYC [SEQ ID NO: 150] | 697.056 | 392.3 | 
NESYLNFARKAAKNP [SEQ ID NO: 62] | 505.278 | 279.1 | 
CNFARKRIKNPEGGLYCSLAVHNITVSEQKISC [SEQ ID NO: 106] | 599.000 | 330.8 | 
YLNFARKRIKAAEGG [SEQ ID NO: 119] | 299.167 | 181.3 | 
CENTSLSSTTNSLMCMDILSEENTSLSSC [Peptide 17] |  |  | MEAN MS (MS sera; 5HT2A receptor library): 316.22; MEAN CTRL (CTRL sera; 5HT2A receptor library): 175.00
CLYGYRWPLPSKLSCSGEANTSDAFNWTC [Peptide 43] |  |  | MEAN MS (MS sera; 5HT2A receptor library): 649.67; MEAN CTRL (CTRL sera; 5HT2A receptor library): 344.80
CNFARKRIKNC [SEQ ID NO: 60] | 748.389 | 374.6 | 
CFNWTVDSENRTNLCMDILSEENTSLSSC [Peptide 30] |  |  | MEAN MS (MS sera; 5HT2A receptor library): 312.00; MEAN CTRL (CTRL sera; 5HT2A receptor library): 174.90
CVALSELGDRQNESYLCQNESYLNFARKRIKNC [SEQ ID NO: 110] | 761.778 | 406.75 | 
